Laboratory results reported in ChEMBL document CHEMBL1201862, “PubChem BioAssay data set” (2004).
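Step 1: Grow cells in 96-well plates. Step 2: Expose to compound for 48 hours at 5 concentrations. Step 3: Interpolate endpoints linearly; if unreached, use highest concentration. The concentration for 50% growth inhibition is given as GI50.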 The source made the active and inactive calls. No stated cut-off is given here; in the data, active = GI50 up to about 1.1 µM and inactive = higher.

Columns and labels:
Assay in all cases: NCI anticancer screen, dose series, 48 h
OVCAR-5 = tested on: OVCAR-5
SNB-19 = tested on: SNB-19
SW-620 = tested on: SW-620
M14 = tested on: M14
MDA-MB-435 = tested on: MDA-MB-435
CAKI-1 = tested on: CAKI-1
MCF7 = tested on: MCF7
COLO 205 = tested on: COLO 205
CCRF-CEM = tested on: CCRF-CEM
HOP-62 = tested on: HOP-62
MOLT-4 = tested on: MOLT-4
K562 = tested on: K562
HCT-15 = tested on: HCT-15
MDA-MB-231 = tested on: MDA-MB-231
T47D = tested on: T47D
BT-549 = tested on: BT-549
NCI-H460 = tested on: NCI-H460
DU-145 = tested on: DU-145
OVCAR-8 = tested on: OVCAR-8
SF-295 = tested on: SF-295

SMILES | GI50 (OVCAR-5) | GI50 (SNB-19) | GI50 (SW-620) | GI50 (M14) | GI50 (MDA-MB-435) | GI50 (CAKI-1) | GI50 (MCF7) | GI50 (COLO 205) | GI50 (CCRF-CEM) | GI50 (HOP-62) | GI50 (MOLT-4) | GI50 (K562) | GI50 (HCT-15) | GI50 (MDA-MB-231) | GI50 (T47D) | GI50 (BT-549) | GI50 (NCI-H460) | GI50 (DU-145) | GI50 (OVCAR-8) | GI50 (SF-295)
CN/N=C(/CCN1CCCC1)CC(c1ccccc1)c1c(O)c2ccccc2oc1=O (stereo not given) | > 100 µM (inactive) | > 100 µM (inactive) | > 100 µM (inactive) | > 100 µM (inactive) | > 100 µM (inactive) | > 100 µM (inactive) | > 100 µM (inactive) | 34.9 µM (inactive) | > 71.9 µM (inactive) | > 100 µM (inactive) | > 65.3 µM (inactive) | > 100 µM (inactive) | > 100 µM | > 100 µM (inactive) | 49.4 µM (inactive) | > 100 µM (inactive) | > 100 µM (inactive) | > 100 µM (inactive) | > 100 µM (inactive) | > 100 µM (inactive)
COc1ccc(/C=N/NS(=O)(=O)c2ccc(/C=C3\NC(=O)NC3=O)cc2)cc1 | > 100 µM (inactive) | 90.8 µM (inactive) | > 100 µM (inactive) | > 100 µM (inactive) | > 100 µM (inactive) | > 100 µM (inactive) | > 100 µM (inactive) | > 100 µM (inactive) | > 100 µM (inactive) | > 100 µM (inactive) | > 100 µM (inactive) | > 100 µM (inactive) | > 100 µM | 11.2 µM (inactive) | > 100 µM (inactive) | > 100 µM (inactive) | > 100 µM (inactive) | > 100 µM (inactive) | 51.5 µM (inactive) | 89.5 µM (inactive)
Cc1ccc(NC(=O)/C(Cc2cc(=O)oc3cc(O)ccc23)=N\NC(=O)C[N+](C)(C)C)cc1C | > 100 µM (inactive) | > 100 µM (inactive) | > 100 µM (inactive) | > 100 µM (inactive) | > 100 µM (inactive) | > 100 µM (inactive) | > 100 µM (inactive) | > 100 µM (inactive) | > 100 µM (inactive) | > 100 µM (inactive) | > 100 µM (inactive) | > 100 µM (inactive) | > 100 µM | > 100 µM (inactive) | > 100 µM (inactive) | > 100 µM (inactive) | > 100 µM (inactive) | > 100 µM (inactive) | > 100 µM (inactive) | > 100 µM (inactive)
O=S(=O)(c1ccc(Cl)cc1)c1ccccc1C1=NCCN1 | > 100 µM (inactive) | > 100 µM (inactive) | > 100 µM (inactive) | > 100 µM (inactive) | > 100 µM (inactive) | > 100 µM (inactive) | > 100 µM (inactive) | > 100 µM (inactive) | > 100 µM (inactive) | > 100 µM (inactive) | > 100 µM (inactive) | > 100 µM (inactive) | > 100 µM | > 100 µM (inactive) | > 100 µM (inactive) | > 100 µM (inactive) | > 100 µM (inactive) | > 100 µM (inactive) | > 100 µM (inactive) | > 100 µM (inactive)
CSc1nc2ccccc2c(=O)n1/N=C1\C(=O)N(CN2CCCCC2)c2ccc(Cl)cc21 | 64.6 µM (inactive) | 61.5 µM (inactive) | 12.5 µM (inactive) | 30.5 µM (inactive) | 26.6 µM (inactive) | 23.3 µM (inactive) | 18.7 µM (inactive) | 17.9 µM (inactive) | 20.6 µM (inactive) | 33.3 µM (inactive) | 12.4 µM (inactive) | 5.22 µM (inactive) | 13.3 µM | 55.1 µM (inactive) | 13.3 µM (inactive) | 15 µM (inactive) | 22.7 µM (inactive) | 17.3 µM (inactive) | 37.2 µM (inactive) | 37 µM (inactive)
C=CC(Br)(CBr)CCC(Br)C(C)C (stereo not given) | 15.6 µM (inactive) | 9.84 µM (inactive) | 2.2 µM (inactive) | 4.16 µM (inactive) | 5.21 µM (inactive) | 6.58 µM (inactive) | 1.82 µM (inactive) | 5.93 µM (inactive) | 0.822 µM (active) | 3.18 µM (inactive) | 1.91 µM (inactive) | 2.11 µM (inactive) | 4.66 µM | 4.27 µM (inactive) | 0.333 µM (active) | 3.14 µM (inactive) | 4.71 µM (inactive) | 8.55 µM (inactive) | 2.44 µM (inactive) | 4.26 µM (inactive)
Brc1c2c(c(Br)c3nsnc13)N=S=N2 | 27.6 µM (inactive) | 26.1 µM (inactive) | 29 µM (inactive) | 22.5 µM (inactive) | 29.7 µM (inactive) | 19.1 µM (inactive) | 24.2 µM (inactive) | 41.5 µM (inactive) | 2.65 µM (inactive) | 3.48 µM (inactive) | 17.9 µM (inactive) | 10.1 µM (inactive) | 24.6 µM | 23.4 µM (inactive) | 27.7 µM (inactive) | 12.3 µM (inactive) | 25.3 µM (inactive) | > 87.1 µM (inactive) | 25.6 µM (inactive) | 27.1 µM (inactive)
